{
  "source": "patent US11564388B2",
  "about": "“Supercooling methods for preservation of biological samples” (X-Therma, Inc., priority 2017, dated 2023)",
  "key": {"[1]": {"test": "Crystallographic x-ray diffraction (XRD) ice formation assay", "format": "physicochemical", "settings": "for reduction of necessary EG concentration while preventing ice formation (ice ring scores): XRD, EG 15-30% (v/v), peptoid 1 and 5 mg/mL", "procedure": "In order to increase the throughput of library analysis, a crystallographic x-ray diffraction (XRD) technique was used to evaluate ice crystal formation. For these experiments, the compounds named “Compound 2,” “Compound 8,” “Compound 10,” “Compound 11,” “Compound 12,” “Compound 13,” and “Compound 58” were tested. Compound 58 is similar to Compound 12, except that an arginine amino acid has been appended to the N-terminal end.\nFor these experiments, EG concentrations between 15% and 30% (v/v) were used. Typically, EG, DMSO, and other cryoprotectants are used during XRD sample analysis at concentrations of 35-40% (v/v) to vitrify solutions and avoid diffraction interference from ice crystals. Concentrations of 1 and 5 mg/mL of the peptoid and peptoid-peptide compounds were used. FIGS. 3A, 3B, and 3C illustrate exemplary XRD data under conditions of complete vitrification, partial vitrification with the presence of cubic ice, and freezing ([…]), respectively. FIG. 3D provides ice rings scores for a variety of EG concentrations and two concentrations of Compounds 2, 8, and 12.\n“IceRing1” and “IceRing2” refer to ice formation scores, which range between 0 (no ice formation) and 15 (large ice formation).\nThe sample containing Compound 12 at a concentration of 5 mg/mL (0.5% (w/v)) and EG at a concentration of 17.5% (v/v) in water was ice-free after flash freezing. […] In the figures, black spots and rings represent ice crystals."}, "[2]": {"settings": "MilliQ water, slow cooled, −20° C., one hour; peptoid 9 mM, EG 160 mM", "procedure": "In this experiment, four water-based samples were prepared in capillary tubes containing MilliQ purified water. One sample contained only water, and another sample contained 160 mM ethylene glycol (EG). The other two samples each contained a peptoid polymer at 9 mM. One of the peptoid polymer samples contained the peptoid polymer called “Compound 1,” while the other sample contained the peptoid polymer called “Compound 10.” The sequences of the peptoid polymers are as follows:\nAfter sample preparation, all samples were slow cooled and incubated at −20° C. on a Peltier cooled plate. After one hour, samples were removed and immediately photographed using a digital camera attached to a 180× Stereo Zoom microscope (FIG. 2A)."}, "[3]": {"tested_on": "HEK 293 cell line", "test": "Cytotoxicity assay (MTT)", "format": "cell-based, human", "procedure": "A Tecan Genesis Robotic Workstation was used to prepare solutions in 96- and 384-well plates. Solutions contained culture media, buffers, a cryoprotectant composition of the present invention (Compound 12) or DMSO. Solutions were adjusted to the desired pH. Serial dilutions were performed to obtain solutions containing various concentrations of Compound 12 and DMSO. Control experiments were performed using only culture media.\nFor these experiments, cells were seeded at low density (i.e., 10% confluence), exposed to solutions containing Compound 12 or DMSO, and placed in a 37° C. incubator. The cells were allowed to grow until control cells that were treated only with empty vehicle approached 70% confluence (typically about 3 to 5 days). Assessment for compound cytotoxicity was via MTT assay."}, "[4]": {"test": "Larger volume flash freeze, rewarming and −20° C. storage assay", "format": "physicochemical", "settings": "22.5% EG", "procedure": "In order to test the usefulness of compositions of the present invention at larger scales, experiments were performed using solution volumes that are similar to volumes used for standard egg and stem cell preservation. For these experiments, two samples, one containing 22.5% EG and buffer only, and another containing 22.5% EG and 5 mg/ml (0.5% w/v) of Compound 12 and buffer, were flash frozen in liquid nitrogen. […] The rewarming of the solutions in a 37° C. water bath led to an unexpected and beneficial result. The Compound 12 solution bypassed devitrification in less than 2 seconds upon rewarming (FIG. 6B, right), whereas chunks of ice were seen floating in the control sample (FIG. 6B, left) after 20 seconds. Condensation was seen on each of the tubes because the tubes were actually still much below room temperature."}, "[5]": {"tested_on": "HEK 293 cells", "test": "Cryopreservation assay, flash freezing in liquid nitrogen, Calcein AM viability", "format": "cell-based, human", "procedure": "Initial cryopreservation assays were performed using very simple solutions, with and without the addition of Compound 12, in order to minimize confounding outside factors. For this first set of experiments, two sample solutions were prepared. The first sample solution contained simple buffer and ethylene glycol (EG) at a concentration of 22.5% (v/v), and the second sample solution contained simple buffer, EG (22.5% (v/v)), and 5 mg/mL (0.5% (w/v)) of Compound 12.\nHEK 293 cells were grown until 70% confluent, then treated with trypsin to remove adhesion proteins and yield free floating cells. Cells were counted using a hemocytometer and sample cell concentrations were adjusted to final concentrations of 10,000 cells per microliter. Cells were then compressed into tight pellets by centrifugation, and each sample was subsequently mixed with 20 μL of one of the sample solutions. Samples were then flash frozen by immersion in liquid nitrogen, followed by rewarming in a 37° C. water bath. After the freeze-thaw process, cells were suspended in a 400× volume of culture media for recovery. The positive control sample was treated with culture media at 37° C. and not subjected to the freeze-thaw process. The negative control sample was treated with culture media only during the freeze-thaw process. After recovery, cells were stained with Calcein AM for 30 minutes and cell viability was measured using a fluorescence plate reader.\nA second set of experiments was performed to evaluate the cryopreservation potential of a formulation that contained 5 mg/mL of Compound 12 plus a mixture of glycols, disaccharides, and a general buffer. Post-thaw survival following vitrification in liquid nitrogen was evaluated as described above."}},
  "note": "Entries after “also recorded” stand apart in the source; their conditions may differ.",
  "data": [
    {"smiles": "CCC(C)NCC(=O)N(CC(=O)N(CC(=O)N(CC(=O)N(CC(=O)N(CC(=O)N(CC(=O)N(CC(=O)N(CC(=O)N(CC(N)=O)CC(C)O)C(C)CC)C(C)CC)C(C)CC)CC(C)O)CC(C)O)CC(C)O)C(C)CC)C(C)CC", "note": "(stereo not drawn) [Compound 2, Nsb-Nsb-Nsb-Nhp-Nhp-Nhp-Nsb-Nsb-Nsb-Nhp]", "values": [
      {"measurement": "reduction of necessary EG concentration while preventing ice formation (ice ring scores)", "setting": "[1]", "result": "significantly reduced necessary EG concentrations while preventing ice formation"}
    ]},
    {"smiles": "OCCO", "note": "[EG, ethylene glycol]", "values": [
      {"measurement": "ice crystal formation", "setting": "[2]", "result": "significant ice crystal formation"}
    ]},
    {"smiles": "C[S+](C)[O-]", "note": "[DMSO, dimethyl sulfoxide, reference compound]", "values": [
      {"measurement": "concentration at which warm survival for an extended period was not allowed", "setting": "[3]; 37° C.", "result": "above 0.5 % (v/v)"}
    ]},
    {"smiles": "CCC(C)NCC(=O)N(CC(=O)N(CC(=O)N(CC(=O)N(CC(=O)N(CC(=O)N(CC(=O)N(CC(=O)N(CC(=O)N(CC(N)=O)C(C)CC)C(C)CC)CC(C)O)CC(C)O)C(C)CC)C(C)CC)CC(C)O)CC(C)O)C(C)CC", "note": "(stereo not drawn) [Compound 12, Nsb-Nsb-Nhp-Nhp-Nsb-Nsb-Nhp-Nhp-Nsb-Nsb]", "values": [
      {"measurement": "ice formation after flash freezing", "setting": "[1]; 5 mg/mL (0.5% (w/v)) with EG 17.5% (v/v) in water, stream of liquid nitrogen vapor", "result": "ice-free"},
      {"measurement": "anti-icing effect in comparison to EG at the same molar concentration", "setting": "[1]; 5 mg/mL with EG 17.5% (v/v)", "result": 500, "unit": "times"},
      {"measurement": "reduction of necessary EG concentration while preventing ice formation (ice ring scores)", "setting": "[1]", "result": "significantly reduced necessary EG concentrations while preventing ice formation"},
      {"measurement": "vitrification on flash freezing in liquid nitrogen", "setting": "[4]; buffer, 5 mg/ml (0.5% w/v)", "result": "complete vitrification with no ice formation; also recorded: vitrified"},
      {"measurement": "state after overnight in −20° C. freezer", "setting": "[4]; 100 μL, 5 mg/ml", "result": "remained unfrozen"},
      {"measurement": "toxicity at the concentration that prevents ice formation", "setting": "[3]; 0.5% w/v", "result": "did not show toxicity"},
      {"measurement": "toxicity at four times the ice-preventing concentration", "setting": "[3]; four times greater than 0.5% w/v", "result": "did not show significant toxicity"},
      {"measurement": "toxicity compared with culture media alone", "setting": "[3]; serial dilutions, 37° C., about 3 to 5 days", "result": "did not significantly deviate from the that of culture media alone"},
      {"measurement": "vitrification of the cell sample during the freezing process", "setting": "[5]; buffer, EG 22.5% (v/v), 5 mg/mL, liquid nitrogen", "result": "complete vitrification without ice formation"},
      {"measurement": "cell survival compared with EG alone", "setting": "[5]; buffer, EG 22.5% (v/v), 5 mg/mL, viability 12 hours post-thaw", "result": "greatly improved cell survival"},
      {"measurement": "post-thaw survival of the cells", "setting": "[5]; vitrified with liquid nitrogen, viability 16 hours post-thaw, Compound 12 at 5 mg/mL plus glycols, disaccharides, general buffer", "result": 98, "unit": "%"}
    ]},
    {"smiles": "CCC(C)NCC(=O)N(CC(=O)N(CC(=O)N(CC(=O)N(CC(=O)N(CC(=O)N(CC(=O)N(CC(=O)N(CC(=O)N(CC(N)=O)CC(C)O)CC(C)O)CC(C)O)C(C)CC)CC(C)O)CC(C)O)CC(C)O)CC(C)O)CC(C)O", "note": "(stereo not drawn) [Compound 8, Nsb-Nhp-Nhp-Nhp-Nhp-Nhp-Nsb-Nhp-Nhp-Nhp]", "values": [
      {"measurement": "reduction of necessary EG concentration while preventing ice formation (ice ring scores)", "setting": "[1]", "result": "significantly reduced necessary EG concentrations while preventing ice formation"}
    ]}
  ]
}
